Experimental data: patent publication US20040019018A1, “Rigid pyrrolidone modulators of pkc” (priority 2003, published 2004)

How the values were obtained:
whole brain PKC = assay: [3H]PDBu displacement from unresolved mixture of PKC isozymes from whole brain extracts; assay type: binding; conditions: [3H]PDBu competition
Method: The ability of representative compounds of the invention to bind specific isozymes of PKC was determined using an assay (Example 13) in which displacement of [20-^3H]phorbol -12,13-dibutyrate ([^3H]PDBu) from either recombinant PKC isozymes prepared in a Baculovirus system, or unresolved mixture of isozymes of PKC isolated from whole brain extracts, was used. These procedures are described below. As described in detail below, preferred compounds for neurological effects are those in which affinity for α, β and γ isozymes is the greatest (i.e. those having the lowest Ki) relative to other isozymes as such as the δ- and ε-isozymes shown in Table 1. […]
Analysis of [20-^3H]phorbol 12,13-dibutyrate binding to PKC. […] Phosphatidylserine and bovine […] were obtained from Sigma Chemical Co. Binding was determined in an incubation volume of 250 μl, containing [^3H]PDBu, PKC, 0.05 M Tris-Cl, pH 7.4, 100 μg/ml phosphatidylserine, various concentrations of the ligand being assayed for competition of [^3H]PDBu binding, and bovine […] at 1 mg/ml. […] [^3H]PDBu was used at a concentration twice the Kd previously determined for the specific receptor. […]
Specific binding represents the difference between total binding and the non-specific binding, where the latter value was calculated from the partition coefficient and the measured free [^3H]PDBu concentration in each tube. […]

sAPP α = assay: Secreted APP from human fibroblasts, Western blot with 6E10 (Example 14); assay type: cell-based; conditions: human fibroblasts (AD patients)
Method: Human fibroblasts were grown to confluence as above for PKC translocation. On the day of the experiment, cells were rinsed twice with serum-free Dulbecco's modified Eagle's medium (DMEM) and incubated in the same medium for 2 hours. Cells were treated with the drugs above, or DMSO vehicle as a control, for 2 hours. The medium was collected and spun for 5 min in a clinical centrifuge to remove cell debris. Proteins in the cell medium were precipitated using 10% trichloroacetic acid (TCA). Precipitated proteins were dissolved in electrophoresis buffer, separated on 8% SDS-PAGE as described above. Secreted APP was detected by Western blotting using a specific monoclonal antibody, 6E10.

[1] = test system: LNCaP prostate cancer cells; assay: Induction of apoptosis in LNCaP prostate cancer cells (DAPI staining); assay type: cell-based
Method: The capacity of inducing apoptosis by compound (1) was evaluated in a model of LNCaP prostate cancer cells. It is well established that in this model phorbol esters (e.g., PMA) activate PKC to induce apoptosis (reference 13). LNCaP cells were treated with compound (1) for 1 h, and apoptosis was assessed 24 h later.
Control cells or cells infected for 14 h with adenoviruses for LacZ, PKCα, or PKCδ (multiplicity of infection=10 pfu/cell) were treated with different concentrations of compound (1) or PMA for 1 h. Cells were collected 24 h later and stained with DAPI. The incidence of apoptosis in each preparation was analyzed by counting 500 cells and determining the percentage of apoptotic cells. Results are the mean±standard error of three independent experiments.
It is well established that PKCα and PKCδ are the isozymes that mediate phorbol ester-induced apoptosis in LNCaP cells (references 13c-e). A model that has been used to assess isozyme-specificity is the overexpression of specific PKCs by an adenoviral system. Infection of LNCaP cells with adenoviruses for PKCs leads to a high expression of the corresponding PKC isozyme, as determined by Western-blot analysis, kinase activity, or [^3H]PDBu binding (reference 13e).

| Structure (SMILES) | Ki (whole brain PKC) [µM] | secretion of sAPP (sAPP α) | apoptotic effect in LNCaP cells ([1]; 1-30 μM, treated 1 h, apoptosis assessed 24 h later, FIG. 6A) | apoptotic effect with control adenovirus ([1]; LNCaP cells infected with LacZ adenovirus) | apoptotic response with overexpression of PKC isozymes ([1]; LNCaP cells infected with adenoviruses for PKCα or PKCδ) |
| --- | --- | --- | --- | --- | --- |
| CCCCCCCCC#Cc1ccc2c(c1)C(C)(C(C)C)C1C(=O)NC(CO)C21 [Compound 1, (3S, 8R, 9S, 10S)-6-(dec-1′-ynyl)-3-hydroxymethyl-8-isopropyl-8-methyl-3,3a,8,8a-tetrahydro-2H-2-aza-cyclopenta[a]inden-1-one] | > 10 | increased the secretion of sAPP | induces a dose-dependent apoptotic effect | did not affect the apoptotic effect | markedly potentiates the apoptotic response |
| CCCCCCCCCCCC(=O)Oc1ccc2c(c1)[C@](C)(C(C)C)[C@H]1C(=O)N[C@H](CO)[C@@H]21 [Compound 2, (3S, 8R, 9S, 10S)-6-dodecanoyloxyl-3-hydroxymethyl-8-isopropyl-8-methyl-3,3a,8,8a-tetrahydro-2H -2-aza-cyclopenta[a]inden-1-one] | > 10 |  |  |  |  |
